Measured values as given in EPA's ToxRefDB 2.

Assays:
mouse [1] = settings: Subchronic oral toxicity in rodents, cd1, Feed, dose end: 6 week, group: systemic, systemic / in life observation / body weight / body weight gain + systemic / organ weight / liver / absolute + systemic / organ weight / …
rat [2] = settings: Subchronic oral toxicity in rodents, sprague dawley, Feed, dose end: 13 week, group: systemic
rat [3] = settings: Multigenerational reproductive toxicity study, sprague dawley, Oral, Feed, dose end: 2 generation
mouse [4] = settings: Carcinogenicity, cd1, Oral, Feed, dose end: 18 month, group: systemic
dog [5] = settings: Subchronic oral toxicity in nonrodent, beagle, Feed, dose end: 6 week, group: systemic, systemic / in life observation / body weight / body weight gain + systemic / clinical chemistry / alanine aminotransferase (alt/sgpt) / …
mouse [6] = settings: Subchronic oral toxicity in rodents, cd1, Feed, dose end: 13 week, group: systemic, systemic / clinical chemistry / alkaline phosphatase (alp/alk) / alkaline phosphatase (alp/alk) + systemic / in life observation / clinical …
dog [7] = settings: Chronic toxicity, beagle, Oral, Feed, dose end: 12 month, group: systemic
[8] = systemic / clinical chemistry / albumin-globulin ratio / albumin-globulin ratio + systemic / organ weight / liver / relative to body weight
[9] = systemic / in life observation / body weight / body weight + systemic / in life observation / body weight / body weight gain + systemic / in…
[10] = group: offspring, systemic / in life observation / body weight / offspring (pup) weight
[11] = group: offspring, systemic / in life observation / body weight / offspring (pup) weight + systemic / organ weight / liver / relative to body weight
[12] = group: parental, systemic / in life observation / body weight / body weight
[13] = systemic / in life observation / body weight / body weight + systemic / in life observation / body weight / body weight gain
[14] = systemic / clinical chemistry / alanine aminotransferase (alt/sgpt) / alanine aminotransferase (alt/sgpt) + systemic / clinical chemistry / …
[15] = systemic / in life observation / clinical signs / moribundity

## O=C(O)C1(C(=O)Nc2ccc(Cl)cc2Cl)CC1 [Cyclanilide]
Mouse [1]
  LEL: 552 mg/kg/day
  LOAEL: 552 mg/kg/day
  NEL: 192 mg/kg/day
  NOAEL: 192 mg/kg/day
Rat [2]; [8]
  LEL: 32.1 mg/kg/day
  NEL: < 32.1 mg/kg/day
Rat [2]; [9]
  LOAEL: 113 mg/kg/day
  NOAEL: 54.6 mg/kg/day
Rat [3]; [10]
  LEL: 20.2 mg/kg/day
  LOAEL: 20.2 mg/kg/day
Rat [3]; [11]
  NEL: 2 mg/kg/day
  NOAEL: 2 mg/kg/day
Rat [3]; [12]
  LEL: 2 mg/kg/day
  LOAEL: 2 mg/kg/day
  NEL: < 2 mg/kg/day
  NOAEL: < 2 mg/kg/day
Mouse [4]; [13]
  LEL: 8.41 mg/kg/day
  LOAEL: 168 mg/kg/day
  NEL: < 8.41 mg/kg/day
Mouse [4]; systemic / in life observation / body weight / body weight + systemic / in life observation / body weight / body weight gain + systemic / …
  NOAEL: 41.8 mg/kg/day
Dog [5]
  LOAEL: > 20 mg/kg/day
  NOAEL: ≥ 20 mg/kg/day
Mouse [6]
  LEL: 364 mg/kg/day
  LOAEL: 364 mg/kg/day
  NEL: 38 mg/kg/day
  NOAEL: 38 mg/kg/day
Dog [7]; [14]
  LOAEL: 21.2 mg/kg/day
  NOAEL: 5.3 mg/kg/day
Dog [7]; [15]
  LEL: 1.3 mg/kg/day
  NEL: < 1.3 mg/kg/day
